What was measured:
Format in all cases: in vivo
Conditions in all cases: 20 DAT
[1] = tested on: Polygonum convolvulus; test: greenhouse pre-emergence herbicidal activity on POLCO
Description: (§1) The test plants have been seeded, separately for each species, in plastic containers in sandy loamy soil containing 5% of organic matter.
(§2) The containers were irrigated gently to promote germination and growth and subsequently covered with transparent plastic hoods until the plants had rooted.
(§3) The plants have been cultivated due to their individual requirements at 10-25° C. and 20-35° C. The plants were irrigated due to their necessity.
(§4) The racemic mixture (±)-2-exo-(2-Methylbenzyloxy)-1-methyl-4-isopropyl-7-oxabicyclo[2.2.1]heptane was used as herbicide A and formulated as emulsifiable concentrates with an active ingredient concentration of 50 g/l, 100 g/l or 750 g/l respectively.
(§5) Acetochlor (herbicide B.1) was used as an encapsulated (CS) formulation having an active ingredient concentration of 400 g/l+67 g/l dichlormid as safener.
(§6) Pretilachlor (herbicide B.2) was used as emulsifiable concentrate (EC) formulation having an active ingredient concentration of 120 g/l.
(§7) In the following experiments, the herbicidal activity for the individual herbicidal compositions (solo and mixture applications) was assessed 20 days after treatment (DAT).
(§8) The evaluation for the damage on undesired weeds caused by the chemical compositions was carried out using a scale from 0 to 100%, compared to the untreated control plants. Here, 0 means no damage and 100 means complete destruction of the plants.
(§9) E=X+Y−(X·Y/100) where X=effect in percent using herbicide A at an application rate a; • Y=effect in percent using herbicide B at application rate b; • E=expected effect (in %) of herbicide A+herbicide B at application rates a+b.
(§10) The value E corresponds to the effect (plant damage or injury) which is to be expected if the activity of the individual compounds is additive. If the observed effect is higher than the value E calculated according to the Colby equation, a synergistic effect is present.
(§11) Tables 1 and 2 below relate to the herbicidal activity, in greenhouse trials, of the individual actives and the combinations applied at different rates and ratios, in pre-emergence application at 20 days after treatment (DAT).

[2] = tested on: Avena fatua; test: greenhouse pre-emergence herbicidal activity on AVEFA
Description: as §1, §2, §3, §4, §5, §6, §7, §8, §9, §10, §11

[3] = tested on: Abutilon theophrasti; test: greenhouse pre-emergence herbicidal activity on ABUTH
Description: as §1, §2, §3, §4, §5, §6, §7, §8, §9, §10, §11

[4] = tested on: Chenopodium album; test: greenhouse pre-emergence herbicidal activity on CHEAL
Description: as §1, §2, §3, §4, §5, §6, §7, §8, §9
(§12) The value E corresponds to the effect (plant damage or injury) which is to be expected if the activity of the individual compounds is additive. If the observed effect is higher than the value E calculated according to the Colby equation, a synergistic effect is present. […]

[5] = tested on: Stellaria media; test: greenhouse pre-emergence herbicidal activity on STEME
Description: as §1, §2, §3, §4, §5, §6, §7, §8, §9, §10, §11

[6] = tested on: Lolium multiflorum; test: greenhouse pre-emergence herbicidal activity on LOLMU
Description: as §1, §2, §3, §4, §5, §6, §7, §8, §9, §10, §11

[7] = tested on: Anthemis arvensis; test: greenhouse pre-emergence herbicidal activity on ANTAR
Description: as §1, §2, §3, §4, §5, §6, §7, §8, §9, §10, §11

[8] = tested on: Alopecurus myosuroides; test: greenhouse pre-emergence herbicidal activity on ALOMY
Description: as §1, §2, §3, §4, §5, §6, §7, §8, §9, §10, §11

[9] = tested on: Setaria viridis; test: greenhouse pre-emergence herbicidal activity on SETVI
Description: as §1, §2, §3, §4, §5, §6, §7, §8, §9, §10, §11

[10] = tested on: Echinochloa crus-galli; test: greenhouse pre-emergence herbicidal activity on ECHCG
Description: as §1, §2, §3, §4
Acetochlor (herbicide B.1) was used as an encapsulated (CS) formulation having an active ingredient concentration of 400 g/l+67 g/l dichlormid as safener. […]
In the following experiments, the herbicidal activity for the individual herbicidal compositions (solo and mixture applications) was assessed 20 days after treatment (DAT). […]
as §12

[11] = tested on: Sorghum halepense; test: greenhouse pre-emergence herbicidal activity on SORHA
Description: as §1, §2, §3, §4, §5, §6, §7, §8, §9, §10, §11

[12] = tested on: Geranium dissectum; test: greenhouse pre-emergence herbicidal activity on GERDI
Description: as §1, §2, §3, §4, §5, §6, §7, §8, §9, §10, §11

With `CCOCN(C(=O)CCl)c1c(C)cccc1CC` [acetochlor, 2-chloro-N-(ethoxymethyl)-N-(2-ethyl-6-methylphenyl)acetamide] the “herbicidal activity, solo application acetochlor” value ([1]; 125 g ai/ha) was 0%, the “herbicidal activity, solo application acetochlor” value ([1]; 250 g ai/ha) was 20% and the “herbicidal activity, solo application acetochlor” value ([1]; 500 g ai/ha) was 40%. The “herbicidal activity, solo application acetochlor” value ([2]; 63 g ai/ha) was 20%, the “herbicidal activity, solo application acetochlor” value ([2]; 125 g ai/ha) was 70% and the “herbicidal activity, solo application acetochlor” value ([2]; 250 g ai/ha) was 70%. For the same compound, the “herbicidal activity, solo application acetochlor” value ([2]; 500 g ai/ha) was 80%, the “herbicidal activity, solo application acetochlor” value ([3]; 63 g ai/ha) was 0% and the “herbicidal activity, solo application acetochlor” value ([3]; 125 g ai/ha) was 0%. The “herbicidal activity, solo application acetochlor” value ([4]; 63 g ai/ha) was 40%, the “herbicidal activity, solo application acetochlor” value ([5]; 250 g ai/ha) was 98% and the “herbicidal activity, solo application acetochlor” value ([6]; 63 g ai/ha) was 70%. For the same compound, the “herbicidal activity, solo application acetochlor” value ([6]; 250 g ai/ha) was 95%, the “herbicidal activity, solo application acetochlor” value ([7]; 63 g ai/ha) was 35% and the “herbicidal activity, solo application acetochlor” value ([7]; 125 g ai/ha) was 70%. The “herbicidal activity, solo application acetochlor” value ([7]; 250 g ai/ha) was 80%, the “herbicidal activity, solo application acetochlor” value ([7]; 500 g ai/ha) was 90% and the “herbicidal activity, solo application acetochlor” value ([8]; 63 g ai/ha) was 50%.

`CCCOCCN(C(=O)CCl)c1c(CC)cccc1CC` [pretilachlor, 2-chloro-N-(2,6-diethylphenyl)-N-(2-propoxyethyl)acetamide] was tested, and the “herbicidal activity, solo application pretilachlor” value ([1]; 63 g ai/ha) was 15%, the “herbicidal activity, solo application pretilachlor” value ([1]; 125 g ai/ha) was 20% and the “herbicidal activity, solo application pretilachlor” value ([2]; 63 g ai/ha) was 15%. The “herbicidal activity, solo application pretilachlor” value ([2]; 125 g ai/ha) was 20%, the “herbicidal activity, solo application pretilachlor” value ([2]; 250 g ai/ha) was 25% and the “herbicidal activity, solo application pretilachlor” value ([9]; 31.3 g ai/ha) was 25%. The “herbicidal activity, solo application pretilachlor” value ([9]; 63 g ai/ha) was 50%, the “herbicidal activity, solo application pretilachlor” value ([9]; 125 g ai/ha) was 60% and the “herbicidal activity, solo application pretilachlor” value ([10]; 31.3 g ai/ha) was 20%. For the same compound, the “herbicidal activity, solo application pretilachlor” value ([4]; 31.3 g ai/ha) was 30%, the “herbicidal activity, solo application pretilachlor” value ([5]; 31.3 g ai/ha) was 30% and the “herbicidal activity, solo application pretilachlor” value ([5]; 63 g ai/ha) was 25%. For the same compound, the “herbicidal activity, solo application pretilachlor” value ([5]; 125 g ai/ha) was 30%, the “herbicidal activity, solo application pretilachlor” value ([6]; 31.3 g ai/ha) was 0% and the “herbicidal activity, solo application pretilachlor” value ([6]; 63 g ai/ha) was 0%. The “herbicidal activity, solo application pretilachlor” value ([6]; 125 g ai/ha) was 25%, the “herbicidal activity, solo application pretilachlor” value ([7]; 31.3 g ai/ha) was 20% and the “herbicidal activity, solo application pretilachlor” value ([7]; 63 g ai/ha) was 20%. The “herbicidal activity, solo application pretilachlor” value ([7]; 125 g ai/ha) was 30%, the “herbicidal activity, solo application pretilachlor” value ([7]; 250 g ai/ha) was 30% and the “herbicidal activity, solo application pretilachlor” value ([11]; 63 g ai/ha) was 20%. The “herbicidal activity, solo application pretilachlor” value ([11]; 125 g ai/ha) was 30%, the “herbicidal activity, solo application pretilachlor” value ([11]; 250 g ai/ha) was 55% and the “herbicidal activity, solo application pretilachlor” value ([8]; 63 g ai/ha) was 40%. The “herbicidal activity, solo application pretilachlor” value ([8]; 125 g ai/ha) was 40%, the “herbicidal activity, solo application pretilachlor” value ([12]; 31.3 g ai/ha) was 0% and the “herbicidal activity, solo application pretilachlor” value ([12]; 63 g ai/ha) was 0%. The “herbicidal activity, solo application pretilachlor” value ([12]; 125 g ai/ha) was 20%.

For “(±)-2-exo-(2-Methylbenzyloxy)-1-methyl-4-isopropyl-7-oxabicyclo[2.2.1]heptane [herbicide A]”, the “herbicidal activity, solo application herbicide A” value ([1]; 62.5 g ai/ha) was 0%, the “herbicidal activity, solo application herbicide A” value ([1]; 125 g ai/ha) was 0% and the “herbicidal activity, solo application herbicide A” value ([1]; 250 g ai/ha) was 15%. For the same compound, the “herbicidal activity, solo application herbicide A” value ([2]; 31.25 g ai/ha) was 0%, the “herbicidal activity, solo application herbicide A” value ([2]; 62.5 g ai/ha) was 0% and the “herbicidal activity, solo application herbicide A” value ([2]; 125 g ai/ha) was 25%. For the same compound, the “herbicidal activity, solo application herbicide A” value ([2]; 250 g ai/ha) was 35%, the “herbicidal activity, solo application herbicide A” value ([9]; 31.25 g ai/ha) was 90% and the “herbicidal activity, solo application herbicide A” value ([9]; 62.5 g ai/ha) was 98%. For the same compound, the “herbicidal activity, solo application herbicide A” value ([9]; 125 g ai/ha) was 98%, the “herbicidal activity, solo application herbicide A” value ([10]; 31.25 g ai/ha) was 98% and the “herbicidal activity, solo application herbicide A” value ([3]; 31.25 g ai/ha) was 30%. For the same compound, the “herbicidal activity, solo application herbicide A” value ([3]; 62.5 g ai/ha) was 60%, the “herbicidal activity, solo application herbicide A” value ([4]; 31.25 g ai/ha) was 40% and the “herbicidal activity, solo application herbicide A” value ([5]; 31.25 g ai/ha) was 30%. The “herbicidal activity, solo application herbicide A” value ([5]; 62.5 g ai/ha) was 30%, the “herbicidal activity, solo application herbicide A” value ([5]; 125 g ai/ha) was 40% and the “herbicidal activity, solo application herbicide A” value ([6]; 31.25 g ai/ha) was 60%. The “herbicidal activity, solo application herbicide A” value ([6]; 62.5 g ai/ha) was 75%, the “herbicidal activity, solo application herbicide A” value ([6]; 125 g ai/ha) was 85% and the “herbicidal activity, solo application herbicide A” value ([7]; 31.25 g ai/ha) was 0%. For the same compound, the “herbicidal activity, solo application herbicide A” value ([7]; 62.5 g ai/ha) was 0%, the “herbicidal activity, solo application herbicide A” value ([7]; 125 g ai/ha) was 0% and the “herbicidal activity, solo application herbicide A” value ([7]; 250 g ai/ha) was 30%. For the same compound, the “herbicidal activity, solo application herbicide A” value ([11]; 62.5 g ai/ha) was 80%, the “herbicidal activity, solo application herbicide A” value ([11]; 125 g ai/ha) was 95% and the “herbicidal activity, solo application herbicide A” value ([11]; 250 g ai/ha) was 98%. The “herbicidal activity, solo application herbicide A” value ([8]; 31.25 g ai/ha) was 98%, the “herbicidal activity, solo application herbicide A” value ([8]; 62.5 g ai/ha) was 98% and the “herbicidal activity, solo application herbicide A” value ([8]; 125 g ai/ha) was 98%. The “herbicidal activity, solo application herbicide A” value ([12]; 31.25 g ai/ha) was 50%, the “herbicidal activity, solo application herbicide A” value ([12]; 62.5 g ai/ha) was 60% and the “herbicidal activity, solo application herbicide A” value ([12]; 125 g ai/ha) was 60%.
